Columns and labels:
Conditions in all cases: 72 h
BT-474 [1] = experiment: drug sensitivity score (DSS), cytotoxicity CellTox Green; higher = more cytotoxic; extreme values may be limits of the assay
Experimental: (§1)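 Targeted FIMM drug screen of 23 compounds at 5 concentrations over a 10,000-fold range in 384-well plates, 1250 cells/well, 72 h at 37 °C. Read-outs were CellTiter-Glo viability and CellTox Green cytotoxicity, normalised to DMSO and benzethonium chloride controls and summarised as drug sensitivity score (DSS). Cells stably transduced with shScramble or one of two shPPFIA1 constructs (shPPFIA1_1 TRCN0000002969, shPPFIA1_2 TRCN0000342514).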

UT-SCC-24A [2] = experiment: as above
Experimental: as §1

MDA-MB-231 [3] = experiment: as above
MDA-MB-231 [4] = experiment: drug sensitivity score (DSS), cell viability CellTiter-Glo; higher = more sensitive; extreme values may be limits of the assay
BT-474 [5] = experiment: as above
Experimental: as §1

UT-SCC-24A [6] = experiment: as above
Experimental: as §1

| Structure (SMILES) | drug sensitivity score (MDA-MB-231 [3]; shRNA: shPPFIA1_1) [DSS] | drug sensitivity score (MDA-MB-231 [3]; shRNA: shScramble) [DSS] | drug sensitivity score (MDA-MB-231 [4]; shRNA: shPPFIA1_1) [DSS] | drug sensitivity score (MDA-MB-231 [4]; shRNA: shScramble) [DSS] | further results |
| --- | --- | --- | --- | --- | --- |
| CC(C)CC(=O)Nc1n[nH]c2c1CN(C(=O)C1CCN(C)CC1)C2(C)C | 3.2 | 0 | 1.8 | 20.1 | drug sensitivity score (BT-474 [1]; shRNA: shPPFIA1_1): 0.9 DSS; drug sensitivity score (BT-474 [1]; shRNA: shPPFIA1_2): 1.1 DSS; drug sensitivity score (BT-474 [1]; shRNA: shScramble): 0.4 DSS; drug sensitivity score (UT-SCC-24A [2]; shRNA: shPPFIA1_1): 1.9 DSS; drug sensitivity score (UT-SCC-24A [2]; shRNA: shPPFIA1_2): 1.4 DSS; drug sensitivity score (UT-SCC-24A [2]; shRNA: shScramble): 1.2 DSS; drug sensitivity score (BT-474 [5]; shRNA: shPPFIA1_1): 1.2 DSS; drug sensitivity score (BT-474 [5]; shRNA: shPPFIA1_2): 1.3 DSS; drug sensitivity score (BT-474 [5]; shRNA: shScramble): 1.5 DSS; drug sensitivity score (UT-SCC-24A [6]; shRNA: shPPFIA1_1): 8.1 DSS; drug sensitivity score (UT-SCC-24A [6]; shRNA: shPPFIA1_2): 8.5 DSS; drug sensitivity score (UT-SCC-24A [6]; shRNA: shScramble): 5.8 DSS |
| CO[C@H]1C[C@@H]2CC[C@@H](C)[C@@](O)(O2)C(=O)C(=O)N2CCCC[C@H]2C(=O)O[C@H]([C@H](C)C[C@@H]2CC[C@@H](OCCO)[C@H](OC)C2)CC(=O)[C@H](C)/C=C(\C)[C@@H](O)[C@@H](OC)C(=O)[C@H](C)C[C@H](C)/C=C/C=C/C=C/1C [Everolimus] | 0 | 0 | 0 | 6.1 | drug sensitivity score (BT-474 [1]; shRNA: shPPFIA1_1): 0 DSS; drug sensitivity score (BT-474 [1]; shRNA: shPPFIA1_2): 0 DSS; drug sensitivity score (BT-474 [1]; shRNA: shScramble): 0 DSS; drug sensitivity score (UT-SCC-24A [2]; shRNA: shPPFIA1_1): 0 DSS; drug sensitivity score (UT-SCC-24A [2]; shRNA: shPPFIA1_2): 0 DSS; drug sensitivity score (UT-SCC-24A [2]; shRNA: shScramble): 0 DSS; drug sensitivity score (BT-474 [5]; shRNA: shPPFIA1_1): 5.2 DSS; drug sensitivity score (BT-474 [5]; shRNA: shPPFIA1_2): 3.6 DSS; drug sensitivity score (BT-474 [5]; shRNA: shScramble): 5.2 DSS; drug sensitivity score (UT-SCC-24A [6]; shRNA: shPPFIA1_1): 1.3 DSS; drug sensitivity score (UT-SCC-24A [6]; shRNA: shPPFIA1_2): 2.5 DSS; drug sensitivity score (UT-SCC-24A [6]; shRNA: shScramble): 2.9 DSS |
| Cc1cc([C@@H](C)Nc2ccccc2C(=O)O)c2nc(N3CCOCC3)cc(=O)n2c1 [AZD-6482] | 0 | 0.9 | 4.2 | 19.8 | drug sensitivity score (BT-474 [1]; shRNA: shPPFIA1_1): 0.2 DSS; drug sensitivity score (BT-474 [1]; shRNA: shPPFIA1_2): 0.1 DSS; drug sensitivity score (BT-474 [1]; shRNA: shScramble): 0.1 DSS; drug sensitivity score (UT-SCC-24A [2]; shRNA: shPPFIA1_1): 2 DSS; drug sensitivity score (UT-SCC-24A [2]; shRNA: shPPFIA1_2): 1 DSS; drug sensitivity score (UT-SCC-24A [2]; shRNA: shScramble): 0.8 DSS; drug sensitivity score (BT-474 [5]; shRNA: shPPFIA1_1): 1.5 DSS; drug sensitivity score (BT-474 [5]; shRNA: shPPFIA1_2): 1.1 DSS; drug sensitivity score (BT-474 [5]; shRNA: shScramble): 2.1 DSS; drug sensitivity score (UT-SCC-24A [6]; shRNA: shPPFIA1_1): 2.1 DSS; drug sensitivity score (UT-SCC-24A [6]; shRNA: shPPFIA1_2): 1.9 DSS; drug sensitivity score (UT-SCC-24A [6]; shRNA: shScramble): 1.4 DSS |
| CN[C@@H](C)C(=O)N[C@H](C(=O)N1CCC[C@H]1c1nc(C(=O)c2ccc(F)cc2)cs1)C1CCCCC1 [NVP-LCL161] | – | – | – | – | drug sensitivity score (BT-474 [1]; shRNA: shPPFIA1_1): 2.4 DSS; drug sensitivity score (BT-474 [1]; shRNA: shPPFIA1_2): 3.3 DSS; drug sensitivity score (BT-474 [1]; shRNA: shScramble): 1.3 DSS; drug sensitivity score (UT-SCC-24A [2]; shRNA: shPPFIA1_1): 10.2 DSS; drug sensitivity score (UT-SCC-24A [2]; shRNA: shPPFIA1_2): 12.8 DSS; drug sensitivity score (UT-SCC-24A [2]; shRNA: shScramble): 8.1 DSS; drug sensitivity score (BT-474 [5]; shRNA: shPPFIA1_1): 1 DSS; drug sensitivity score (BT-474 [5]; shRNA: shPPFIA1_2): 1.4 DSS; drug sensitivity score (BT-474 [5]; shRNA: shScramble): 0.7 DSS; drug sensitivity score (UT-SCC-24A [6]; shRNA: shPPFIA1_1): 4.5 DSS; drug sensitivity score (UT-SCC-24A [6]; shRNA: shPPFIA1_2): 5.7 DSS; drug sensitivity score (UT-SCC-24A [6]; shRNA: shScramble): 4.2 DSS |
| CC[C@H](NC(=O)[C@H](C)NC)C(=O)N1C[C@@H](O)C[C@H]1Cc1c(-c2[nH]c3cc(F)ccc3c2C[C@@H]2C[C@H](O)CN2C(=O)[C@H](CC)NC(=O)[C@H](C)NC)[nH]c2cc(F)ccc12 [Birinapant] | 31.3 | 22.4 | 20.3 | 13.2 | – |
| CCS(=O)(=O)c1cccc(-c2cc(C(=O)NC3CCN(C)CC3)c(C)c3[nH]c4ncc(C)cc4c23)c1 [TAK-901] | 0 | 0 | 0 | 3.6 | – |
| NC(=O)Nc1cc(-c2cccc(F)c2)sc1C(=O)N[C@H]1CCCNC1 [AZD7762] | 2.8 | 0.1 | 4.5 | 5.7 | – |
| OC[C@H]1O[C@@H](n2cnc3c2N=CNC[C@H]3O)C[C@@H]1O [Pentostatin] | 0 | 0 | 0.5 | 0.2 | – |
| COc1cc2c(Oc3ccc(NC(=O)C4(C(=O)Nc5ccc(F)cc5)CC4)cc3F)ccnc2cc1OCCCN1CCOCC1 [Foretinib] | 0 | 0 | 0 | 2.2 | – |
| Cn1cc(C2=C(c3cn(C4CCN(Cc5ccccn5)CC4)c4ccccc34)C(=O)NC2=O)c2ccccc21 [Enzastaurin] | 0 | 0 | 5.6 | 2.8 | – |
| Cc1nc(N)sc1-c1ccnc(Nc2ccc(N3CCOCC3)cc2)n1 [CYC-116] | 0 | 0 | 0.2 | 4.8 | – |
| CCCCNc1ncc(C(=O)NCc2ccc(-n3ccnc3)cc2)c(NC2CCC(O)CC2)n1 (stereo unspecified) [UNC2881] | 0 | 0 | 0 | 0.5 | – |
| COc1ccc(-c2nc(N3CCOCC3)c3sc(CN(C)c4ncc(C(=O)NO)cn4)cc3n2)cn1 [CUDC-907] | 23.5 | 24.5 | 24 | 28 | – |
| COCC1(CO)C(=O)C2CCN1CC2 (stereo unspecified) [APR-246] | 0 | 0 | 1.3 | 0 | – |
| CS(=O)(=O)N1CCN(Cc2cc3nc(-c4cccc5[nH]ncc45)nc(N4CCOCC4)c3s2)CC1 [Pictilisib] | 0 | 0 | 0 | 2.9 | – |
| COc1cc(C(=O)O)ccc1NC(=O)[C@@H]1N[C@@H](CC(C)(C)C)[C@](C#N)(c2ccc(Cl)cc2F)[C@H]1c1cccc(Cl)c1F [Idasanutlin] | 2.6 | 0.6 | 0 | 0 | – |
| CCn1c(=O)c(-c2ccc(Cl)cc2Cl)cc2cnc(Nc3ccc(N4CCNCC4)c(F)c3)nc21 [FRAX486] | 0 | 0 | 0 | 2.8 | – |
| CN(C)CCOc1ccc(/C(=C(/CCCl)c2ccccc2)c2ccccc2)cc1 [Toremifene] | 4.6 | 1.8 | 2.4 | 1.3 | – |
| N.N.[Cl][Pt][Cl] [Cisplatin] | 4 | 3.5 | 2 | 7.6 | – |

| Structure (SMILES) | drug sensitivity score (MDA-MB-231 [3]; shRNA: shPPFIA1_1) [DSS] | drug sensitivity score (MDA-MB-231 [3]; shRNA: shScramble) [DSS] | drug sensitivity score (MDA-MB-231 [4]; shRNA: shPPFIA1_1) [DSS] | drug sensitivity score (MDA-MB-231 [4]; shRNA: shScramble) [DSS] | further results |
| --- | --- | --- | --- | --- | --- |
| Cn1cncc1[C@@](N)(c1ccc(Cl)cc1)c1ccc2c(c1)c(-c1cccc(Cl)c1)cc(=O)n2C [Tipifarnib] | 5.9 | 0.8 | 3.5 | 4 | – |
| Nc1nc(NC2CC2)cc(-c2cccc(Cl)c2Cl)n1 [TH588] | 0.6 | 0.5 | 0.9 | 0.8 | – |
| COc1cc(OC2CCN(C)CC2)ccc1Nc1ncc2c(n1)n(C1CCCC1)c(=O)n2C [AZ 3146] | 0.7 | 2.7 | 4.7 | 8.7 | – |
| CCc1cc2c(cc1N1CCC(N3CCOCC3)CC1)C(C)(C)c1[nH]c3cc(C#N)ccc3c1C2=O [Alectinib] | 0 | 0 | 0 | 0.4 | – |
| C=CC(=O)N1CCC[C@@H](n2nc(-c3ccc(Oc4ccccc4)cc3)c3c(N)ncnc32)C1 [Ibrutinib] | 0 | 0 | 0 | 0 | – |
| CN(C)/N=N/c1[nH]cnc1C(N)=O [Dacarbazine] | 0 | 0 | 0 | 0 | – |
| NC(=O)c1cccc(-c2cccc(OC(=O)NC3CCCCC3)c2)c1 [URB597] | 0 | 0 | 0.2 | 0 | – |
| Cc1ccc(-n2nc(C(C)(C)C)cc2NC(=O)Nc2ccc(OCCN3CCOCC3)c3ccccc23)cc1 [Doramapimod] | 0 | 0 | 0 | 2.5 | – |
| CS(=O)(=O)N1CCc2c(-c3cnc(N)nc3)nc(N3CCOCC3)nc21 | 0 | 0 | 0 | 7.7 | – |
| CCC/C=C/C=C/C(=O)O[C@H]1/C(=C/C(=O)OC)C[C@H]2C[C@H]([C@@H](C)O)OC(=O)C[C@H](O)C[C@@H]3C[C@H](OC(C)=O)C(C)(C)[C@](O)(C[C@@H]4C/C(=C/C(=O)OC)C[C@H](/C=C/C(C)(C)[C@]1(O)O2)O4)O3 [Bryostatin 1] | 0 | 0 | 17.2 | 3.3 | – |
| CCCc1cc(C)[nH]c(=O)c1CNC(=O)c1cc(-c2ccnc(N3CCN(C)CC3)c2)cc2c1cnn2C(C)C [GSK343] | 3.8 | 1.9 | 6 | 3.1 | – |
| NS(=O)(=O)OC[C@@H]1C[C@@H](n2ccc3c(N[C@H]4CCc5ccccc54)ncnc32)C[C@@H]1O [Pevonedistat] | 7.6 | 7 | 16.9 | 10.6 | – |
| CO[C@H](C(=O)[C@@H](O)[C@@H](C)O)[C@@H]1Cc2cc3cc(O[C@H]4C[C@@H](O[C@@H]5C[C@@H](O)[C@H](O)[C@@H](C)O5)[C@H](O)[C@@H](C)O4)c(C)c(O)c3c(O)c2C(=O)[C@H]1O[C@H]1C[C@@H](O[C@@H]2C[C@@H](O)[C@@H](O[C@@H]3C[C@](C)(O)[C@H](O)[C@@H](C)O3)[C@@H](C)O2)[C@H](O)[C@@H](C)O1 [Plicamycin] | 8.5 | 7.1 | 6.2 | 11.6 | – |
| CCOc1cc2ncc(C#N)c(Nc3ccc(OCc4ccccn4)c(Cl)c3)c2cc1NC(=O)/C=C/CN(C)C [Neratinib] | 0.2 | 0 | 6.3 | 8.3 | – |
| CC(C)n1nc(-c2ccc3oc(N)nc3c2)c2c(N)ncnc21 [MLN-0128] | 0 | 0 | 0.2 | 5 | – |
| Cc1ccc(F)c(NC(=O)Nc2ccc(-c3cccc4[nH]nc(N)c34)cc2)c1 [Linifanib] | 0 | 0 | 0 | 0 | – |
| Cc1ccc(-c2cc(C(F)(F)F)nn2-c2ccc(S(N)(=O)=O)cc2)cc1 [Celecoxib] | 0 | 0 | 0 | 0 | – |
| CC1(C)CCC(c2ccc(Cl)cc2)=C(CN2CCN(c3ccc(C(=O)NS(=O)(=O)c4ccc(N[C@H](CCN5CCOCC5)CSc5ccccc5)c(S(=O)(=O)C(F)(F)F)c4)cc3)CC2)C1 [Navitoclax] | 15.2 | 12.4 | 4.4 | 4.4 | – |
| CNC(=O)c1cccc(-c2ccc3c(N4CCOC[C@@H]4C)nc(N4CCOC[C@@H]4C)nc3n2)c1 [AZD2014] | 0 | 0.5 | 0 | 7.9 | – |

From the supplement of paper PMC10920090
